In ChEMBL document CHEMBL1127205, “Synthesis and anticonvulsant activity of 3-arylamino-4-aryl-5-(N-4-chlorophenylthiocarbamido)-1,2,4-thiadiazoles” (Bioorg Med Chem Lett, 1993):

Legend:
Rattus norvegicus [1] = assay: Sleeping time was determined in rats at 30 mg/kg intraperitoneal dose; type: functional
Rattus norvegicus [2] = species on record: Rattus norvegicus; assay: Effective dose was measured in rats using maximal electroshock seizure test; type: functional
Rattus norvegicus [3] = assay: Effective dose was measured in rats using maximal electroshock seizure test(ip); showed no protection up to 120 mg/kg (i.p. dose); type: functional, organism-based; parameters: dose 120 mg/kg
Rattus norvegicus [4] = species on record: Rattus norvegicus; assay: The activity was measured by using barbiturate hypnosis potentiation effect test; type: functional
Rattus norvegicus [5] = species on record: Rattus norvegicus; assay: % protection was measured in rats using maximal electroshock seizure test; type: functional
Rattus norvegicus [6] = assay: % protection was measured in rats using subcutaneous pentylenetetrazole seizure test; type: functional; parameters: concentration or dose not given beside the values
Rattus norvegicus [7] = assay: Sleeping time was determined in rats after administration of compound; non-significant; type: functional
[8] = Tested for therapeutic index of compound (LD50/MES ED50); settings: rat; read-out: TI
[9] = Acute toxicity was measured in rats using maximal electroshock seizure test; settings: rat, in vivo
Rattus norvegicus [10] = assay: Effective dose was measured in rats using maximal electroshock seizure test(ip); showed no protection up to 100 mg/kg (i.p. dose); type: functional, organism-based; parameters: dose 100 mg/kg
Rattus norvegicus [11] = assay: Effective dose was measured in rats using subcutaneous pentylenetetrazole seizure test; type: functional; settings: sc
Rattus norvegicus [12] = species on record: Rattus norvegicus; assay: % protection was measured in rats using maximal electroshock seizure test; p<0.05; type: functional
Rattus norvegicus [13] = assay: Sleeping time was determined in rats after administration of compound; NS non-significant; type: functional
Rattus norvegicus [14] = assay: Sleeping time was determined in rats after administration of compound; p<0.05; type: functional
Rattus norvegicus [15] = species on record: Rattus norvegicus; assay: % protection was measured in rats using maximal electroshock seizure test; p<0.01; type: functional
Rattus norvegicus [16] = assay: % protection was measured in rats using subcutaneous pentylenetetrazole seizure test; p<0.05; type: functional

SMILES: CCCC(C)C1(CC)C(=O)N=C([O-])NC1=O.[Na+] (stereo unspecified) [PENTOBARBITAL SODIUM]
- Sleeping time (Rattus norvegicus [1]): 65.25 min

SMILES: Cc1ccc(Nc2ns/c(=N\C(S)=N\c3ccc(Cl)cc3)n2-c2ccc(C)cc2)cc1
- ED50 (Rattus norvegicus [2]): 46.7 mg/kg
- ED50 (Rattus norvegicus [3]): no protection up to 120 mg/kg
- Hypnosis potentiation (Rattus norvegicus [4]): 15.63%
- Protection (Rattus norvegicus [5]): 50%
- Protection (Rattus norvegicus [6]): 0%
- Sleeping time (Rattus norvegicus [7]): 75.45 min
- selectivity ratio [8]: 6.42
- LD50 [9]: 300 mg/kg

SMILES: Cc1cccc(Nc2ns/c(=N\C(S)=N\c3ccc(Cl)cc3)n2-c2cccc(C)c2)c1
- ED50 (Rattus norvegicus [10]): no protection up to 100 mg/kg
- ED50 (Rattus norvegicus [3]): no protection up to 100 mg/kg
- Protection (Rattus norvegicus [5]): 0%
- Protection (Rattus norvegicus [6]): 0%

SMILES: COc1ccccc1Nc1ns/c(=N\C(S)=N\c2ccc(Cl)cc2)n1-c1ccccc1OC
- ED50 (Rattus norvegicus [10]): no protection up to 100 mg/kg
- ED50 (Rattus norvegicus [3]): no protection up to 100 mg/kg
- Protection (Rattus norvegicus [5]): 0%
- Protection (Rattus norvegicus [6]): 0%

SMILES: S=C(/N=c1\snc(Nc2ccccc2Cl)n1-c1ccccc1Cl)Nc1ccc(Cl)cc1
- ED50 (Rattus norvegicus [2]): 12 mg/kg
- ED50 (Rattus norvegicus [11]): 35.1 mg/kg
- Hypnosis potentiation (Rattus norvegicus [4]): 20.58%
- Protection (Rattus norvegicus [12]): 75%
- Protection (Rattus norvegicus [6]): 0%
- Sleeping time (Rattus norvegicus [13]): 78.68 min
- selectivity ratio [8]: 14.6
- LD50 [9]: 175 mg/kg

SMILES: Cc1ccccc1Nc1ns/c(=N\C(S)=N\c2ccc(Cl)cc2)n1-c1ccccc1C
- ED50 (Rattus norvegicus [10]): no protection up to 100 mg/kg
- ED50 (Rattus norvegicus [3]): no protection up to 100 mg/kg
- Protection (Rattus norvegicus [5]): 0%
- Protection (Rattus norvegicus [6]): 0%

SMILES: COc1cccc(Nc2ns/c(=N\C(S)=N\c3ccc(Cl)cc3)n2-c2cccc(OC)c2)c1
- ED50 (Rattus norvegicus [10]): no protection up to 100 mg/kg
- ED50 (Rattus norvegicus [3]): no protection up to 100 mg/kg
- Protection (Rattus norvegicus [5]): 0%
- Protection (Rattus norvegicus [6]): 0%

SMILES: O=C1NC(=O)C(c2ccccc2)(c2ccccc2)N1 [PHENYTOIN]
- ED50 (Rattus norvegicus [2]): 9.5 mg/kg
- ED50 (Rattus norvegicus [11]): 100 mg/kg
- Hypnosis potentiation (Rattus norvegicus [4]): 54.02%
- Protection (Rattus norvegicus [12]): 75%
- Protection (Rattus norvegicus [6]): 37.5%
- Sleeping time (Rattus norvegicus [14]): 100.5 min
- LD50 [9]: 65.5 mg/kg

SMILES: S=C(/N=c1\snc(Nc2cccc(Cl)c2)n1-c1cccc(Cl)c1)Nc1ccc(Cl)cc1
- ED50 (Rattus norvegicus [2]): 17.5 mg/kg
- ED50 (Rattus norvegicus [11]): 26.2 mg/kg
- Hypnosis potentiation (Rattus norvegicus [4]): 5.97%
- Protection (Rattus norvegicus [12]): 75%
- Protection (Rattus norvegicus [6]): 75%
- Sleeping time (Rattus norvegicus [7]): 69.15 min
- selectivity ratio [8]: 6.85
- LD50 [9]: 120 mg/kg

SMILES: COc1ccc(Nc2ns/c(=N\C(S)=N\c3ccc(Cl)cc3)n2-c2ccc(OC)cc2)cc1
- ED50 (Rattus norvegicus [2]): 20.3 mg/kg
- ED50 (Rattus norvegicus [11]): 150 mg/kg
- Hypnosis potentiation (Rattus norvegicus [4]): 3.14%
- Protection (Rattus norvegicus [5]): 50%
- Protection (Rattus norvegicus [6]): 0%
- Sleeping time (Rattus norvegicus [13]): 67.3 min
- selectivity ratio [8]: 10.3
- LD50 [9]: 210 mg/kg

SMILES: S=C(/N=c1\snc(Nc2ccccc2)n1-c1ccccc1)Nc1ccc(Cl)cc1
- ED50 (Rattus norvegicus [2]): 76.5 mg/kg
- Hypnosis potentiation (Rattus norvegicus [4]): 4.98%
- Protection (Rattus norvegicus [5]): 25%
- Protection (Rattus norvegicus [6]): 0%
- Sleeping time (Rattus norvegicus [7]): 68.5 min
- selectivity ratio [8]: 3.26
- LD50 [9]: 250 mg/kg

SMILES: S=C(/N=c1\snc(Nc2ccc(Cl)cc2)n1-c1ccc(Cl)cc1)Nc1ccc(Cl)cc1
- ED50 (Rattus norvegicus [2]): 10 mg/kg
- ED50 (Rattus norvegicus [11]): 22.1 mg/kg
- Hypnosis potentiation (Rattus norvegicus [4]): 11.58%
- Protection (Rattus norvegicus [15]): 87.5%
- Protection (Rattus norvegicus [16]): 75%
- Sleeping time (Rattus norvegicus [7]): 72.81 min
- selectivity ratio [8]: 11.7
- LD50 [9]: 117 mg/kg
